These results are taken from PubChem BioAssay AID1963831 (Molecular Pharmacology Branch, DTP, NCI, 2024).

The structures appear in SMILES notation.
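Note: spheroids exposed to compounds for seven days.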
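Throughout, for viability, T/C: 100% = DMSO vehicle control viability.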

The subject of one test is 889142-216-R-J1-PDC complex spheroid viability. Put plainly: Anticancer human tumor 889142-216-R-J1-PDC patient-derived bladder carcinoma cell line growth inhibition [POLQ]. As to conditions: curve of first compound; second compound 0.0316 µM. In short, it runs like this:
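PDC + HUVEC + MSC complex spheroids; POLQ inhibitors ± partner drugs; top conc. at/near clinical Cmax, else 10 microM (SN-38 1 microM), half-log dilutions; 37 degrees C, 5% CO2.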
One may read the IC50 as the concentration at which inhibition is half-maximal. Take `CC1COCCN1c1cc(C2(O)CC3CCC(C2)O3)c2cnn(-c3ccn[nH]3)c2n1` (stereo unspecified) + COC1C(OC(N)=O)C(O)C(Oc2ccc3c(O)c(NC(=O)c4ccc(O)c(CC=C(C)C)c4)c(=O)oc3c2C)OC1(C)C: the IC50 stood at 0.125 µM.

As to `O=C(Nc1ccc(O)c(NS(=O)(=O)c2ccc(F)cc2)c1)c1ccc(-c2ccccc2)cc1` + COC1C(OC(N)=O)C(O)C(Oc2ccc3c(O)c(NC(=O)c4ccc(O)c(CC=C(C)C)c4)c(=O)oc3c2C)OC1(C)C, the IC50 is greater than 10 µM.

For the molecule `COc1cc(C2c3cc4c(cc3C(OC3OC5COC(C)OC5C(O)C3O)C3COC(=O)C23)OCO4)cc(OC)c1O` (stereo unspecified) + Cc1cccc(N(C)C(=O)C2C(O)CCN2c2nc(C)cc(C(F)(F)F)c2C#N)c1, the IC50 is greater than 10 µM.

Still in this test, the particulars now being: curve of first compound; second compound 0.1 µM.
For the molecule `CC1COCCN1c1cc(C2(O)CC3CCC(C2)O3)c2cnn(-c3ccn[nH]3)c2n1` (stereo unspecified) + COC1C(OC(N)=O)C(O)C(Oc2ccc3c(O)c(NC(=O)c4ccc(O)c(CC=C(C)C)c4)c(=O)oc3c2C)OC1(C)C, the IC50 turned out to be 0.132 µM.

In the case of `O=C(Nc1ccc(O)c(NS(=O)(=O)c2ccc(F)cc2)c1)c1ccc(-c2ccccc2)cc1` + COC1C(OC(N)=O)C(O)C(Oc2ccc3c(O)c(NC(=O)c4ccc(O)c(CC=C(C)C)c4)c(=O)oc3c2C)OC1(C)C, the IC50 is greater than 10 µM.

With `COc1cc(C2c3cc4c(cc3C(OC3OC5COC(C)OC5C(O)C3O)C3COC(=O)C23)OCO4)cc(OC)c1O` (stereo unspecified) + Cc1cccc(N(C)C(=O)C2C(O)CCN2c2nc(C)cc(C(F)(F)F)c2C#N)c1, the IC50 is greater than 10 µM.

Staying with this test, now noted: curve of first compound; second compound 0.316 µM.
`CC1COCCN1c1cc(C2(O)CC3CCC(C2)O3)c2cnn(-c3ccn[nH]3)c2n1` (stereo unspecified) + COC1C(OC(N)=O)C(O)C(Oc2ccc3c(O)c(NC(=O)c4ccc(O)c(CC=C(C)C)c4)c(=O)oc3c2C)OC1(C)C: the IC50 amounted to 0.18 µM.

Turning to `O=C(Nc1ccc(O)c(NS(=O)(=O)c2ccc(F)cc2)c1)c1ccc(-c2ccccc2)cc1` + COC1C(OC(N)=O)C(O)C(Oc2ccc3c(O)c(NC(=O)c4ccc(O)c(CC=C(C)C)c4)c(=O)oc3c2C)OC1(C)C, the IC50 was greater than 10 µM.

On to `COc1cc(C2c3cc4c(cc3C(OC3OC5COC(C)OC5C(O)C3O)C3COC(=O)C23)OCO4)cc(OC)c1O` (stereo unspecified) + Cc1cccc(N(C)C(=O)C2C(O)CCN2c2nc(C)cc(C(F)(F)F)c2C#N)c1, for which the IC50 is greater than 10 µM.

Still in this test, the particulars now being: curve of first compound; second compound 1 µM.
With `CC1COCCN1c1cc(C2(O)CC3CCC(C2)O3)c2cnn(-c3ccn[nH]3)c2n1` (stereo unspecified) + COC1C(OC(N)=O)C(O)C(Oc2ccc3c(O)c(NC(=O)c4ccc(O)c(CC=C(C)C)c4)c(=O)oc3c2C)OC1(C)C, the IC50 was found to be 0.195 µM.

Turning to `O=C(Nc1ccc(O)c(NS(=O)(=O)c2ccc(F)cc2)c1)c1ccc(-c2ccccc2)cc1` + COC1C(OC(N)=O)C(O)C(Oc2ccc3c(O)c(NC(=O)c4ccc(O)c(CC=C(C)C)c4)c(=O)oc3c2C)OC1(C)C, the IC50 was greater than 10 µM.

In the case of `COc1cc(C2c3cc4c(cc3C(OC3OC5COC(C)OC5C(O)C3O)C3COC(=O)C23)OCO4)cc(OC)c1O` (stereo unspecified) + Cc1cccc(N(C)C(=O)C2C(O)CCN2c2nc(C)cc(C(F)(F)F)c2C#N)c1, the IC50 is greater than 10 µM.

The test is the same for the next values; noted with them: curve of first compound; second compound 3.16 µM.
As to `CC1COCCN1c1cc(C2(O)CC3CCC(C2)O3)c2cnn(-c3ccn[nH]3)c2n1` (stereo unspecified) + COC1C(OC(N)=O)C(O)C(Oc2ccc3c(O)c(NC(=O)c4ccc(O)c(CC=C(C)C)c4)c(=O)oc3c2C)OC1(C)C, the IC50 amounted to 0.169 µM.

Take `O=C(Nc1ccc(O)c(NS(=O)(=O)c2ccc(F)cc2)c1)c1ccc(-c2ccccc2)cc1` + COC1C(OC(N)=O)C(O)C(Oc2ccc3c(O)c(NC(=O)c4ccc(O)c(CC=C(C)C)c4)c(=O)oc3c2C)OC1(C)C: the IC50 is greater than 10 µM.

Regarding `COc1cc(C2c3cc4c(cc3C(OC3OC5COC(C)OC5C(O)C3O)C3COC(=O)C23)OCO4)cc(OC)c1O` (stereo unspecified) + Cc1cccc(N(C)C(=O)C2C(O)CCN2c2nc(C)cc(C(F)(F)F)c2C#N)c1, the IC50 is greater than 10 µM.

The same test, now with this note: curve of first compound; second compound 10 µM.
With `CC1COCCN1c1cc(C2(O)CC3CCC(C2)O3)c2cnn(-c3ccn[nH]3)c2n1` (stereo unspecified) + COC1C(OC(N)=O)C(O)C(Oc2ccc3c(O)c(NC(=O)c4ccc(O)c(CC=C(C)C)c4)c(=O)oc3c2C)OC1(C)C, the IC50 came to 0.0933 µM.

With `O=C(Nc1ccc(O)c(NS(=O)(=O)c2ccc(F)cc2)c1)c1ccc(-c2ccccc2)cc1` + COC1C(OC(N)=O)C(O)C(Oc2ccc3c(O)c(NC(=O)c4ccc(O)c(CC=C(C)C)c4)c(=O)oc3c2C)OC1(C)C, the IC50 is greater than 10 µM.

Take `COc1cc(C2c3cc4c(cc3C(OC3OC5COC(C)OC5C(O)C3O)C3COC(=O)C23)OCO4)cc(OC)c1O` (stereo unspecified) + Cc1cccc(N(C)C(=O)C2C(O)CCN2c2nc(C)cc(C(F)(F)F)c2C#N)c1: the IC50 was 4.63 µM.

Still in this test, the particulars now being: second compound 0.0316 µM; first compound 0.0316 µM; stronger effect = lower value.
The viability, T/C is the result in the treated group divided by that in the control group, in per cent. Turning to `CC1COCCN1c1cc(C2(O)CC3CCC(C2)O3)c2cnn(-c3ccn[nH]3)c2n1` (stereo unspecified) + COC1C(OC(N)=O)C(O)C(Oc2ccc3c(O)c(NC(=O)c4ccc(O)c(CC=C(C)C)c4)c(=O)oc3c2C)OC1(C)C, the viability, T/C was 64.3%.

As to `O=C(Nc1ccc(O)c(NS(=O)(=O)c2ccc(F)cc2)c1)c1ccc(-c2ccccc2)cc1` + COC1C(OC(N)=O)C(O)C(Oc2ccc3c(O)c(NC(=O)c4ccc(O)c(CC=C(C)C)c4)c(=O)oc3c2C)OC1(C)C, the viability, T/C is 122%.

Take `COc1cc(C2c3cc4c(cc3C(OC3OC5COC(C)OC5C(O)C3O)C3COC(=O)C23)OCO4)cc(OC)c1O` (stereo unspecified) + Cc1cccc(N(C)C(=O)C2C(O)CCN2c2nc(C)cc(C(F)(F)F)c2C#N)c1: the viability, T/C is 83.9%.

Still in this test, the particulars now being: second compound 0.0316 µM; first compound 0.1 µM; stronger effect = lower value.
On to `CC1COCCN1c1cc(C2(O)CC3CCC(C2)O3)c2cnn(-c3ccn[nH]3)c2n1` (stereo unspecified) + COC1C(OC(N)=O)C(O)C(Oc2ccc3c(O)c(NC(=O)c4ccc(O)c(CC=C(C)C)c4)c(=O)oc3c2C)OC1(C)C, for which the viability, T/C is 50.6%.

In the case of `O=C(Nc1ccc(O)c(NS(=O)(=O)c2ccc(F)cc2)c1)c1ccc(-c2ccccc2)cc1` + COC1C(OC(N)=O)C(O)C(Oc2ccc3c(O)c(NC(=O)c4ccc(O)c(CC=C(C)C)c4)c(=O)oc3c2C)OC1(C)C, the viability, T/C is 98.7%.

`COc1cc(C2c3cc4c(cc3C(OC3OC5COC(C)OC5C(O)C3O)C3COC(=O)C23)OCO4)cc(OC)c1O` (stereo unspecified) + Cc1cccc(N(C)C(=O)C2C(O)CCN2c2nc(C)cc(C(F)(F)F)c2C#N)c1: the viability, T/C is 74.5%.

Staying with this test, now noted: second compound 0.0316 µM; first compound 0.316 µM; stronger effect = lower value.
Turning to `CC1COCCN1c1cc(C2(O)CC3CCC(C2)O3)c2cnn(-c3ccn[nH]3)c2n1` (stereo unspecified) + COC1C(OC(N)=O)C(O)C(Oc2ccc3c(O)c(NC(=O)c4ccc(O)c(CC=C(C)C)c4)c(=O)oc3c2C)OC1(C)C, the viability, T/C is 40.6%.

As to `O=C(Nc1ccc(O)c(NS(=O)(=O)c2ccc(F)cc2)c1)c1ccc(-c2ccccc2)cc1` + COC1C(OC(N)=O)C(O)C(Oc2ccc3c(O)c(NC(=O)c4ccc(O)c(CC=C(C)C)c4)c(=O)oc3c2C)OC1(C)C, the viability, T/C was 115%.

With `COc1cc(C2c3cc4c(cc3C(OC3OC5COC(C)OC5C(O)C3O)C3COC(=O)C23)OCO4)cc(OC)c1O` (stereo unspecified) + Cc1cccc(N(C)C(=O)C2C(O)CCN2c2nc(C)cc(C(F)(F)F)c2C#N)c1, the viability, T/C was 65.3%.

The same test, now with this note: second compound 0.0316 µM; first compound 1 µM; stronger effect = lower value.
For `CC1COCCN1c1cc(C2(O)CC3CCC(C2)O3)c2cnn(-c3ccn[nH]3)c2n1` (stereo unspecified) + COC1C(OC(N)=O)C(O)C(Oc2ccc3c(O)c(NC(=O)c4ccc(O)c(CC=C(C)C)c4)c(=O)oc3c2C)OC1(C)C, the viability, T/C is 32.7%.

With `O=C(Nc1ccc(O)c(NS(=O)(=O)c2ccc(F)cc2)c1)c1ccc(-c2ccccc2)cc1` + COC1C(OC(N)=O)C(O)C(Oc2ccc3c(O)c(NC(=O)c4ccc(O)c(CC=C(C)C)c4)c(=O)oc3c2C)OC1(C)C, the viability, T/C is 116%.

As to `COc1cc(C2c3cc4c(cc3C(OC3OC5COC(C)OC5C(O)C3O)C3COC(=O)C23)OCO4)cc(OC)c1O` (stereo unspecified) + Cc1cccc(N(C)C(=O)C2C(O)CCN2c2nc(C)cc(C(F)(F)F)c2C#N)c1, the viability, T/C was 53.5%.

The same test, now with this note: second compound 0.0316 µM; first compound 3.16 µM; stronger effect = lower value.
Consider `CC1COCCN1c1cc(C2(O)CC3CCC(C2)O3)c2cnn(-c3ccn[nH]3)c2n1` (stereo unspecified) + COC1C(OC(N)=O)C(O)C(Oc2ccc3c(O)c(NC(=O)c4ccc(O)c(CC=C(C)C)c4)c(=O)oc3c2C)OC1(C)C, for which the viability, T/C is 26.2%.
